Assay results reported in EPA's ToxValDB 9.5 (doi:10.2903/j.efsa.2010.1828).

How the values were obtained:
Aphidius rhopalosiphi = test: LR50; higher = less toxic; settings: not reported; mortality
Macromiidae = settings: acute; duration: 72 hours; growth
Daphnia magna = settings: chronic/long-term; duration: 21 days; growth
Coturnix japonica = settings: reproduction developmental; duration: 8 weeks; reproduction
Tagia sp. = settings: acute; duration: 14 days; mortality
Folsomia candida = settings: chronic/long-term; duration: 28 days
Apis mellifera = settings: acute; duration: 48 hours; oral; unspecified; mortality
Bird = settings: short-term; oral; feed; mortality
Bibionidae = settings: chronic/long-term; duration: 26 days; other
Colinus virginianus = settings: acute; oral; mortality

O=C(Nc1ccccc1)N(Cc1ccc(Cl)cc1)C1CCCC1 [Pencycuron]
LR50 (Aphidius rhopalosiphi): 685 g/ha
NOEC (Macromiidae): > 0.3 mg/L
LC50 (Oncorhynchus mykiss; acute, duration: 96 hours, mortality): > 0.3 µg/mL
NOEC (Oncorhynchus mykiss; chronic/long-term, duration: 94 days, growth): 0.0832 mg/L
NOEC (Daphnia magna): 0.0496 mg/L
NOEL (Coturnix japonica): ≥ 122 mg/kg-day
LC50 (Tagia sp.): > 10000 mg/kg
NOEC (Folsomia candida): 60 mg/kg
LD50 (Apis mellifera): > 98.5 µg/piece
LC50 (Bird): > 1750 mg/kg-day
LD50 (Rattus norvegicus; acute, oral, mortality): > 5000 mg/kg
NOAEL (Rattus norvegicus; chronic, duration: 2 years): 18 mg/kg-day
NOAEL (Rattus norvegicus; reproduction developmental, body weight): 32 mg/kg-day
NOEC (Bibionidae): ≥ 0.3 mg/L
LD50 (Colinus virginianus): > 2000 mg/kg
